Source: paper PMC6159992, “Selective disruption of TLR2-MyD88 interaction inhibits inflammation and attenuates Alzheimer’s pathology” (The Journal of Clinical Investigation, 2018)
One block for each molecule: values may come before it.

Experiments:
5XFAD-Tg mice = experiment: Gross motor activity of 5XFAD-Tg mice; assay type: in vivo, mouse; settings: 0.1 mg/kg BW/2 d intranasal, 30 days, n=8
Excerpt: The ultimate objective of neuroprotection in AD is to improve and/or protect memory. Major functions of the hippocampus are to generate and organize long-term memory and spatial learning. Therefore, we examined whether WT TIDM peptide protected memory and learning in Tg mice. As expected, Tg mice took much longer to find the food reward hole and had greater latency (P < 0.001 [= 0.0000213]) with higher errors (P < 0.001 [= 0.0000251]) in the Barnes maze as compared with non-Tg mice. […] Likewise, on the T-maze test, untreated Tg mice also had fewer positive turns (P < 0.001 [= 0.0000440]) and a higher number of negative turns (P < 0.001 [= 0.000223]) than did age-matched non-Tg mice (Figure 6, L and M). […] We also monitored the short-term memory of Tg mice using the novel object recognition (NOR) test. […]
treatment, hippocampal extracts of all groups of mice (n=4 per group) were analyzed for protein levels of Aβ by Western blot using 82E1 mAb. […] Results were analyzed by […]
Figure S14. […] After 30d of treatment, ELISA quantification of Aβ1-40 (A, C & E) and Aβ1-42 (B, D & F) was performed in serum (A & B) and TBS (C & D) and (TBS+Triton X-100) (E & F) extracted hippocampal tissues. […]
Figure S15. […] After 30d of treatment, hippocampal extracts of all groups of mice (n=4 per group) were analyzed for phospho-tau and total tau by Western blot. […] Results were analyzed by two-sample t-tests. […]

[1] = Hippocampal level of WT TIDM after intranasal administration (ESI-MS); assay type: in vivo; settings: male, B6SJL-Tg(APPSwFlLon,PSEN1*M146L*L286V)6799Vas/J (5XFAD), mouse, hippocampus (brain tissue), inhaled or intranasal, Tg mice, 1 intranasal dose 0.1 mg/kg BW, 60 minutes after administration, read-out: level of WT TIDM peptide in hippocampus
Description: It is becoming clear that glial inflammation plays an important role in the loss of neurons in AD and other neurodegenerative disorders ([7], [9], [22]–[24]). […] We first determined whether the WT TIDM peptide could enter into the hippocampus. Tg mice were treated with TIDM peptides intranasally, and after 60 minutes of administration, we detected WT TIDM peptide in the hippocampus of Tg mice by electrospray ionization–coupled mass spectrometry (ESI-MS) (Figure 5, A and C). […] The level of WT TIDM peptide was 23.33 ± 14.14 ng/g brain tissue in the hippocampus of WT TIDM–treated Tg mice compared with nil in the saline-treated Tg mice. By infrared scanning, we also detected TIDM peptide in hippocampus after intranasal treatment (Supplemental Figure 10). […]
Tg mice (6 months of age) received 1 intranasal dose of WT TIDM peptide (0.1 mg/kg BW). After 60 minutes of treatment, mice were perfused with sterile saline, and hippocampi were homogenized and supernatant analyzed for WT TIDM by ESI-MS (A, WT TIDM standard; B, untreated 5XFAD-Tg; C, WT TIDM–treated 5XFAD-Tg). […] Cells positive for Iba-1 (E, CA1; F, CA3), p-p65 (G, CA1; H, CA3), and iNOS (I, CA1; J, CA3) were counted in 2 sections (2 images/slide) from each of 6 different mice (n = 6) per group. ^†P < 0.001 versus non-Tg; ^††P < 0.001 versus Tg; 2-sample t test. […]

[2] = molecular target: T1, cMyc-tagged C-terminal TIR domain of TLR2 protein (cTLR2), purified recombinant protein (mouse, UniProt Q9QUN7 640-784); experiment: SPR; cTLR2 (0.8 mg/ml, PBS) immobilised on a 500-kDa carboxymethyl dextran gold sensor slide (Reichert 4SPR); WT TIDM and mTIDM peptides injected in PBS running buffer, 30 μl/min, 2.5 min association, 3 min dissociation; KD from the response at equilibrium versus peptide concentration; settings: both partners purified
T1 construct: TLR2, mouse, C-terminal TIR domain, amino acids 640-784; subcloned from the full-length construct pLenti-cMyc-DDK/Tlr2 (Origene); also called cMyc-tagged cTLR2 recombinant protein; TLR2 (in the SPR methods)
T1 sequence (Q9QUN7 640-784): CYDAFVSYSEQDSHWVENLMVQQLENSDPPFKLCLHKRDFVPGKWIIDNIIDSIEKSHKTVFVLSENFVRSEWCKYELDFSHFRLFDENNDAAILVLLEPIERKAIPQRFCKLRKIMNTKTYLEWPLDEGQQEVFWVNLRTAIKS

Molecule: CC[C@H](C)[C@H](NC(=O)[C@H](CCCCN)NC(=O)[C@@H](NC(=O)[C@H](CCC(N)=O)NC(=O)[C@H](CCCNC(=N)N)NC(=O)[C@@H](N)CC(=O)O)[C@@H](C)CC)C(=O)N[C@@H](Cc1c[nH]c2ccccc12)C(=O)N[C@@H](Cc1ccccc1)C(=O)N[C@@H](CCC(N)=O)C(=O)N[C@@H](CC(N)=O)C(=O)N[C@@H](CCCNC(=N)N)C(=O)N[C@@H](CCCNC(=N)N)C(=O)N[C@@H](CCSC)C(=O)N[C@@H](CCCCN)C(=O)N[C@@H](Cc1c[nH]c2ccccc12)C(=O)N[C@@H](CCCCN)C(=O)N[C@@H](CCCCN)C(=O)N1CCC[C@H]1C(=O)NCC(=O)N[C@@H](C)C(=O)N[C@@H](Cc1c[nH]cn1)C(=O)N[C@@H](CCC(N)=O)C(=O)N[C@@H](CCCCN)C(=O)O [WT TIDM]
gross motor activity (movements, horizontal activity, rest time, stereotypy) (5XFAD-Tg mice): neither the WT TIDM nor the mTIDM peptide modulated the gross motor activity of Tg mice
tissue level at time at 1 h [1]: 23.3 ± 14.1 ng/g

Molecule: CC[C@H](C)[C@H](NC(=O)[C@H](CCCCN)NC(=O)[C@@H](NC(=O)[C@H](CCC(N)=O)NC(=O)[C@H](CCCNC(=N)N)NC(=O)[C@@H](N)CC(=O)O)[C@@H](C)CC)C(=O)N[C@@H](Cc1c[nH]c2ccccc12)C(=O)N[C@@H](Cc1ccccc1)C(=O)N[C@@H](CCC(N)=O)C(=O)N[C@@H](CC(N)=O)C(=O)N[C@@H](CCCNC(=N)N)C(=O)N[C@@H](CCCNC(=N)N)C(=O)N[C@@H](CCSC)C(=O)N[C@@H](CCCCN)C(=O)N[C@@H](Cc1c[nH]c2ccccc12)C(=O)N[C@@H](CCCCN)C(=O)N[C@@H](CCCCN)C(=O)N1CCC[C@H]1C(=O)NCC(=O)N[C@@H](Cc1c[nH]c2ccccc12)C(=O)N[C@@H](Cc1c[nH]cn1)C(=O)N[C@@H](CCC(N)=O)C(=O)N[C@@H](CC(=O)O)C(=O)O [mTIDM]
gross motor activity (movements, horizontal activity, rest time, stereotypy) (5XFAD-Tg mice): neither the WT TIDM nor the mTIDM peptide modulated the gross motor activity of Tg mice

Kd [2]: 8 µM
Molecule: DRQIKIWFQNRRMKWKKPGAHQK (Drosophila; the printed order is kept)

Kd [2]: 19 µM
B1: mutated TIDM peptide (peptide)
peptide: DRQIKIWFQNRRMKWKKPGWHQD
notes: Drosophila; MyD88, mouse, residues 245-250 of the CD loop with two underlined mutations (A to W, K to D); positions 247 and 250 counted from the printed limits 245 and 250; also called mTIDM
